From patent US20240122887A1, “THERAPEUTIC USES OF L-4-CHLOROKYNURENINE” (VISTAGEN THERAPEUTICS, INC., priority 2015, published 2024)

Assays:
[1] = cited from earlier work
[2] = target: NMDA receptor glycine B (GlyB) coagonist site (Homo sapiens, UniProt Q05586); conditions: vs naturally occurring kynurenic acid; cited from earlier work
[3] = Phase 1b clinical study, plasma pharmacokinetics after oral L-4-chlorokynurenine (LC-MS/MS); conditions: human plasma
Protocol: (§1) Subjects were randomized into one of three cohorts (360, 1,080, and 1,440 mg) and received a daily oral dose for 14 consecutive days. […] However, a total of 50 subjects were enrolled in this study. […] Forty-six subjects completed the study per protocol.
(§2) Blood was collected in 6-mL lithium heparin Vacutainer tubes. Samples were centrifuged, and the plasma was separated from the cells and frozen within 30 minutes after centrifugation. Centrifuged samples were placed on ice until they were placed in the freezer. Plasma samples were stored frozen at approximately −20° C. until their shipment to a contractor for analysis.
(§3) Baseline samples (0 minutes) were collected before the drug was administered on Day 1 and on Day 14. Samples were then collected at 0.5, 1, 1.5, 2, 4, 6, 8, 12, and 24 hours after dosing on Day 1 and Day 14.
(§4) Both assays used a plasma sample volume of 50.0 μg/mL.

[4] = test system: capsaicin-induced hyperalgesia; assay: Antihyperalgesic effect on capsaicin-induced hyperalgesia, VAS pain assessment, Phase 1b study; format: in vivo, human
Protocol: On Day 1 and Day 14 of the clinical study, two intradermal injections of 250 μg of capsaicin were injected sequentially into the volar aspect of alternate forearms to produce burning pain, secondary hyperalgesia, and a flare. The capsaicin USP (United States Pharmacopeia) was prepared according to the site's standard procedure and dissolved in 20% cyclodextrin at a concentration of 10 mg/mL. The first capsaicin injection in one forearm was given 1 hour after oral administration of L-4-chlorokynurenine or placebo, and the second capsaicin injection was given in the other forearm 2 hours after the administration of L-4-chlorokynurenine or placebo. The neurosensory testing began immediately at each capsaicin injection. The serial pain assessments using a 100-mm visual analog scale (VAS) occurred at preinjection and 0, 5, 10, 15, 30, 45, and 60 minutes after each capsaicin injection. The examiner asked the subject to rate the intensity by using the VAS of the spontaneous pain and elicited pain from the application of a 5.18 von Frey hair, 40° C. probe, and gentle stroking with a 1-inch foam brush. The VAS consisted of a 100-mm line with “no pain” written at the 0-mm end and the “worst imaginable pain” written at the 100-mm end. The distance in millimeters provided the pain measurement. […] At least eight determinations of the hyperalgesic area borders were made using the same assessments and starting at different angles. Additionally, subjects were asked to rate the pain intensity of a 1-minute 45° C. heat stimulus (brief thermal stimulation) applied to the anterior thigh at 4.5 hours (±5 minutes) after study drug administration, then every 30 minutes (±5 minutes) through 6 hours after study drug administration. A radiant temperature probe was applied to fix the skin temperature at 36° C. during the pain assessments. Subjects used the VAS for all pain assessments. All study assessment time points were anchored to Time 0, the time of study drug administration. […]

[5] = test system: three animal models of peripheral tissue inflammation and nerve injury; assay: Animal models of peripheral tissue inflammation and nerve injury; format: in vivo
[6] = test system: patients with a diagnosis of MDD; assay: Treatment of major depressive disorder, HDRS / MADRS (Example 3); format: in vivo, human; conditions: 1,080 or 1,440 mg/day orally for 2 weeks
Protocol: Twenty-five patients, both male and female, ages 18 to 65, with a diagnosis of MDD are treated with either L-4-chlorokynurenine (1,080 or 1,440 mg/day given orally) for 2 weeks, similar in design to similar studies. [Ibrahim et al. 2012, Zarate et al. 2013, Zarate et al. 2006, Zarate et al. 2005.] […] [Montgomery et al. 1979] Additional indicators of therapeutic efficacy for a given patient could also be the proportion of subjects achieving remission (HDRS≤7) and response (≥50% reduction from baseline in HDRS total score); change from baseline in Hamilton Anxiety Rating Scale (HAM-A) [Hamilton 1959], Columbia Suicide Severity Rating Scale (C-SSRS) total scores [Posner et al. 2011], as well as other measures of mood or psychological states, for example Beck Depression Inventory (BDI) [Beck et al., 1974], the Visual Analogue Scale (VAS) [Aitken 1969], the Brief Psychiatric Rating Scale (BPRS) [Overall et al. 1962], the Clinician Administered Dissociative Scale (CADSS) [Bremner et al. 1998] and the Young Mania Rating Scale (YMRS) [Young et al. 1978].

[7] = test system: patients with obsessive-compulsive disorder; assay: Treatment of obsessive-compulsive disorder, OCD-VAS / Y-BOCS; format: in vivo, human; conditions: about 20 to about 2,000 mg/day
Protocol: Patients with obsessive-compulsive disorder (OCD) are treated with L-4-chlorokynurenine to reduce OCD symptoms. […] The dose of L-4-chlorokynurenine is selected from about 20 mg/day up to about 2,000 mg/day, more preferably about 300 mg/day to about 1,500 mg/day and more preferably about 700 mg/day to about 1,200 mg/day.

[8] = test system: patients with chronic tinnitus; assay: Treatment of tinnitus, TQ / SF-36 / audiometric parameters (Example 5); format: in vivo, human; conditions: daily oral dose escalated 180, 720, 1440 mg/day
Protocol: One hundred male or female patients between 20-65 years of age with mon- or binaural chronic tinnitus lasting for at least 3-months are enrolled in the study. Patients are randomized into a drug and placebo groups, baseline psychometric and health measurements are taken, followed by blind administration of a daily single oral dose for 14-days of either L-4-chlorokynurenine (initial dose of 180 mg) or placebo. Subsequent psychometric and health measurements are taken at 3-, 7-, and 14-days post (prior to next drug administration) drug administration. At 14, and 28 days the dose of AV-101 is increased to 720 and 1440 mg/day respectively. At 42 and 70 days, all patients are given the panel of psychometric and health measurements. […]
Primary success measures are a statistically significant difference between the mean TQ scores of L-4-chlorokynurenine and placebo groups. […] Student t-test for independent samples or the Mann-Whitney test at each time point are used to assess the statistical significance of the quantitative data. The significance of the qualitative data is assessed with chi-square test or the Fisher exact test. To assess improvement over time and dose, TQ and secondary measurements are evaluated using Friedman Variance Analysis and similar tools for variance analysis.

[9] = human, in vivo, po
Protocol: as §1, §2, §3, §4

[10] = test system: dopaminergic neurons; conditions: brains of rats; cited from earlier work

SMILES	Crossing of the blood-brain barrier ([1]; in vivo)	Potency and selectivity relative to endogenous KYNA [2]	Mean 7-chlorokynurenic acid AIC0-t ([3]; Day 1, after 1,440-mg oral dose of L-4-chlorokynurenine)	Mean 7-chlorokynurenic acid AIC0-t ([3]; Day 1, after lowest oral dose (360 mg) of L-4-chlorokynurenine)	Mean 7-chlorokynurenic acid Cmax and AIC0-t on Day 14 compared with Day 1 ([3]; once-daily oral doses of L-4-chlorokynurenine for 14 days)	Least squares means of the AUPC for allodynia pain, mechanical hyperalgesia pain and heat hyperalgesia pain vs placebo ([4]; 1,080 mg (Cohort 2))	Secondary efficacy endpoints (AUPC spontaneous pain, elicited pain von Frey hair, 40° C. probe), treatment vs placebo ([4]; 120 to 180 min Day 1, 60 to 180 min Days 1 and 14)	Area under the pain time curve (AUPC) for spontaneous pain, treatment vs placebo (primary efficacy endpoint) ([4]; each dose level, 120 to 180 minutes after dosing on Day 14)	Antihyperalgesic action in animal models [5]	HDRS and/or MADRS total scores (overall depressive symptomatology) [6]	OCD symptoms (OCD-VAS, Y-BOCS) [7]	Symptoms of tinnitus (TQ, SF-36) [8]	Mean L-4-chlorokynurenine AIC0-t [9]	Mean L-4-chlorokynurenine Cmax and AIC0-t on Day 14 compared with Day 1 [9]	Mean t1/2 of L-4-chlorokynurenine [9]	Access to the central nervous system ([1]; after oral or parenteral administration)	Firing rate and burst firing activity of dopaminergic neurons [10]
O=C(O)c1cc(O)c2ccc(Cl)cc2n1 [7-chlorokynurenic acid]	does not cross the blood-brain barrier	about 20 ×	985 ng·h/mL	156 ng·h/mL	slightly lower on Day 14	–	–	–	–	–	–	–	–	–	–	–	–
Nc1cc(Cl)ccc1C(=O)CC(N)C(=O)O [L-4-chlorokynurenine]	–	–	–	–	–	consistent decrease	no significant changes	no significant change	potent antihyperalgesic actions	significant decrease	Patients show improvement	show improvement	196000 ng·h/mL	slightly lower on Day 14	1.64 to 1.82 h	readily gains access to the central nervous system	increase
